In ChEMBL document CHEMBL1157928, “Discovery and structural optimization of pyrazole derivatives as novel inhibitors of Cdc25B” (Bioorg Med Chem Lett, 2010):

Assays:
[1] = target: T1, M-phase inducer phosphatase 2 (Homo sapiens, UniProt P30305); assay: Inhibition of CDC25B
T1 sequence (P30305 whole entry): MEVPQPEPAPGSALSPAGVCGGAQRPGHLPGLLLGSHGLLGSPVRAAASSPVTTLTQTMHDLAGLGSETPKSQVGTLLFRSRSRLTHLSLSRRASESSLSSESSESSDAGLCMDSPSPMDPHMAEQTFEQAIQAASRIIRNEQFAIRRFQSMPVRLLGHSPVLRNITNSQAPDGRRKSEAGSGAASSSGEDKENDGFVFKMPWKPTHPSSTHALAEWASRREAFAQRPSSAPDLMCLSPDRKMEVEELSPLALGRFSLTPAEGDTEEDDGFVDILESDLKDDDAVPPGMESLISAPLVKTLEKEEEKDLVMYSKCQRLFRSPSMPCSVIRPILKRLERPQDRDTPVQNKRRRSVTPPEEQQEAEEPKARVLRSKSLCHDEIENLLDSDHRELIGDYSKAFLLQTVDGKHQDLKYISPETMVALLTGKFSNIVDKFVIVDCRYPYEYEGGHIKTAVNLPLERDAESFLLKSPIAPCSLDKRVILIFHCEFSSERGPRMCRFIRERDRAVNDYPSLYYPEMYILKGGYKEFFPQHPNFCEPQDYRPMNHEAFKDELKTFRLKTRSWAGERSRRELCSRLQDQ

[2] = target: T2, Tyrosine-protein phosphatase non-receptor type 2 (Homo sapiens, UniProt P17706); assay: Inhibition of TCPTP
T2 sequence (P17706 whole entry): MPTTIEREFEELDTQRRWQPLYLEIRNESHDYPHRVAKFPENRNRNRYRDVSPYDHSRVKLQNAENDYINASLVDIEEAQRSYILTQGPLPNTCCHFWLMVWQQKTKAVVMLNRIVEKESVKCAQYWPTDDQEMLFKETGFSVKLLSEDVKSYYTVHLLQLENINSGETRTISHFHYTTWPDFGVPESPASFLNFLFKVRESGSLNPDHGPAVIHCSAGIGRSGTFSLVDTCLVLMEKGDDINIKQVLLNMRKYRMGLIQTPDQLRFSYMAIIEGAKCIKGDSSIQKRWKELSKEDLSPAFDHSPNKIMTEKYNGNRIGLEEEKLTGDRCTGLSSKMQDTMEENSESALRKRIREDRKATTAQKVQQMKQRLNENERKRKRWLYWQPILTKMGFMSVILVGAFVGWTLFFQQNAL

[3] = target: Tyrosine-protein phosphatase non-receptor type 6 (Homo sapiens, UniProt P29350); assay: Inhibition of SHP1
Chain of Tyrosine-protein phosphatase non-receptor type 6 (P29350 whole entry): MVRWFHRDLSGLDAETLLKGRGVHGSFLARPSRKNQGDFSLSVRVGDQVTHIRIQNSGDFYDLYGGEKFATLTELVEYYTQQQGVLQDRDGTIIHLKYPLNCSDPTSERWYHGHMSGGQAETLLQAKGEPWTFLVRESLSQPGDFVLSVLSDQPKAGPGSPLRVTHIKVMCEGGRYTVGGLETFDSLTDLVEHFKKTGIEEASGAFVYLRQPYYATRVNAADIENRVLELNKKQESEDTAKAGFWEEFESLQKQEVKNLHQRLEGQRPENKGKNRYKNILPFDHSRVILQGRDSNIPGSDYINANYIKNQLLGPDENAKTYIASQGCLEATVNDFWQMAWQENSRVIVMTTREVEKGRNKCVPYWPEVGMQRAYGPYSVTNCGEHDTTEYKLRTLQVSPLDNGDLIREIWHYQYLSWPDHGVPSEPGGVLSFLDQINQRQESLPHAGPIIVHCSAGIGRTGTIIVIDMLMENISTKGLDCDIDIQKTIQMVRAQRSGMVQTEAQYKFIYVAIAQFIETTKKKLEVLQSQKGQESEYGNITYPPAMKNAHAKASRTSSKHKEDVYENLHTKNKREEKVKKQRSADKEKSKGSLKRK

[4] = target: T3, Tyrosine-protein phosphatase non-receptor type 1 (Homo sapiens, UniProt P18031); assay: Inhibition of PTP1B
T3 sequence (P18031 whole entry): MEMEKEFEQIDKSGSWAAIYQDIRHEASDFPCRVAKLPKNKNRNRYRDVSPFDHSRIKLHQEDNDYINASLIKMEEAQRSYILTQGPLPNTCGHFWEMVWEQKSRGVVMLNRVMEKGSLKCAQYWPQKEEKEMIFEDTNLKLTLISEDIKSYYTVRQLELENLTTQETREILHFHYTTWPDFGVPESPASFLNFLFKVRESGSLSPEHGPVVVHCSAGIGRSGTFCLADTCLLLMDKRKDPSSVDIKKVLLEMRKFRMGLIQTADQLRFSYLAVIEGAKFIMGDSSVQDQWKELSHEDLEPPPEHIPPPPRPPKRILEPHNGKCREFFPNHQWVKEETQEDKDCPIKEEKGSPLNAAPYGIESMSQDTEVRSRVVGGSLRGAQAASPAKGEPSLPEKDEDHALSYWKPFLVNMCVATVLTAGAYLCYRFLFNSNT

[5] = target: Receptor-type tyrosine-protein phosphatase F (Homo sapiens, UniProt P10586); assay: Inhibition of PTP-LAR
Chain of Receptor-type tyrosine-protein phosphatase F (P10586 whole entry): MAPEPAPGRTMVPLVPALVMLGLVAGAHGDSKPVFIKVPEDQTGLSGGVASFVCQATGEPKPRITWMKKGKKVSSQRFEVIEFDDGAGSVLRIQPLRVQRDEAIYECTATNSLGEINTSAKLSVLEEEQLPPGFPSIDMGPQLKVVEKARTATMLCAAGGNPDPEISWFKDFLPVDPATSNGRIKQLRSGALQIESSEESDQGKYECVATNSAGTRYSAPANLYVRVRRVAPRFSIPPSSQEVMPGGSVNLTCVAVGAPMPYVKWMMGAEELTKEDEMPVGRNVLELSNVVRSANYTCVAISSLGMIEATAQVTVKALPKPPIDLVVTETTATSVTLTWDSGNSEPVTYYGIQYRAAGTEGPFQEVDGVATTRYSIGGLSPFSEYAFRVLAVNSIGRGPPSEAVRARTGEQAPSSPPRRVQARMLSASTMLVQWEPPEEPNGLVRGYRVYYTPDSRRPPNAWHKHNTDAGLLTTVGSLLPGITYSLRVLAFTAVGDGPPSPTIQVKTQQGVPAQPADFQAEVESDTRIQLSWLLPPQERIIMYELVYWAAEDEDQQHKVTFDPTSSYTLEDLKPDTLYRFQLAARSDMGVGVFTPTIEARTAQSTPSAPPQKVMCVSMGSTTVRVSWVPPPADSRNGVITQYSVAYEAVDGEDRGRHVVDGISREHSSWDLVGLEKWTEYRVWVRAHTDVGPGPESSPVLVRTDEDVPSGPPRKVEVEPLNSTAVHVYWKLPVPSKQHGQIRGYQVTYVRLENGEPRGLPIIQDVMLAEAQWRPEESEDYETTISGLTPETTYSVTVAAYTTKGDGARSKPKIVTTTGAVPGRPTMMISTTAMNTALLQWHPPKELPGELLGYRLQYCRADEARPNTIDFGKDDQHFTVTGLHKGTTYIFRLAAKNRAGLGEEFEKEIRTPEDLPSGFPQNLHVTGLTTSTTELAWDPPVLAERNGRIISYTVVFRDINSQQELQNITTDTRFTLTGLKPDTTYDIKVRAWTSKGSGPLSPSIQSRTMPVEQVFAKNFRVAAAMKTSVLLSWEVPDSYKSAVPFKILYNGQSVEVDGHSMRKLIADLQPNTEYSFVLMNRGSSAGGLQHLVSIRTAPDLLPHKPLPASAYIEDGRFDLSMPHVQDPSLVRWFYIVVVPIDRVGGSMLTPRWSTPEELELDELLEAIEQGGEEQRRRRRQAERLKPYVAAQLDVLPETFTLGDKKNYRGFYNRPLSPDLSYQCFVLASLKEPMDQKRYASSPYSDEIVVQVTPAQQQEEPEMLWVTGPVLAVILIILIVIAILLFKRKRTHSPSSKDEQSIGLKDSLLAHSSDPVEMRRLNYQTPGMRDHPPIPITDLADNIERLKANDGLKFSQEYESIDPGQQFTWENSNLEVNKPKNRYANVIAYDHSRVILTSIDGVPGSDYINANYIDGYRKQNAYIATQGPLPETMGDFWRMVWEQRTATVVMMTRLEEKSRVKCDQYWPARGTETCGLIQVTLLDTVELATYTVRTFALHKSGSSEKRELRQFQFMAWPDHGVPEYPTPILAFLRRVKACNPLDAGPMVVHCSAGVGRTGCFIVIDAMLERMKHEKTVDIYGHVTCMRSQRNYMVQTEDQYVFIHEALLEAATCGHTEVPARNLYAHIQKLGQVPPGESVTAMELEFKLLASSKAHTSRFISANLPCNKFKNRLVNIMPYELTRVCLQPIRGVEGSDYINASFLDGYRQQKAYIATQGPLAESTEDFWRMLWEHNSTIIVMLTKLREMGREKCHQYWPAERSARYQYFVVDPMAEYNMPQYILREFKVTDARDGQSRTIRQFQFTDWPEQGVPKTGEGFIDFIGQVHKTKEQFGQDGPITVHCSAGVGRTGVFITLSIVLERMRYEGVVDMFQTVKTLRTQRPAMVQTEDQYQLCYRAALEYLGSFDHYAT

[6] = target: T4, Tyrosine-protein phosphatase non-receptor type 11 (Homo sapiens, UniProt Q06124); assay: Inhibition of SHP2
T4 sequence (Q06124 whole entry): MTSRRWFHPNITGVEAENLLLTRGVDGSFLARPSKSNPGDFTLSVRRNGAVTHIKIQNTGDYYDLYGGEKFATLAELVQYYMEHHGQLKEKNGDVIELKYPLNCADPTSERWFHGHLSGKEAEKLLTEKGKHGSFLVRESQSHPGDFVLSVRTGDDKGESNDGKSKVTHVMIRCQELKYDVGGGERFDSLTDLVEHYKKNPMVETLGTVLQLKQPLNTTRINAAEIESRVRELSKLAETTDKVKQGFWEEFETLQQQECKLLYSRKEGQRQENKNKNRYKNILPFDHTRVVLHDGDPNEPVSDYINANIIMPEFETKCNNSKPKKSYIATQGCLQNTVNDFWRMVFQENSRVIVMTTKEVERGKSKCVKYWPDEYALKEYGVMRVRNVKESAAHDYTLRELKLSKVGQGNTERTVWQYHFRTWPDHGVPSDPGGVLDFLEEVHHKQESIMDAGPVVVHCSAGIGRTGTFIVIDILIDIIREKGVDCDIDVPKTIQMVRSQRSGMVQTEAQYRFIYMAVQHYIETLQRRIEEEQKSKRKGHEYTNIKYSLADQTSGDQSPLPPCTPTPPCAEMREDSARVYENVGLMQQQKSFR

SMILES	IC50 [1]	IC50 ([1]; read-out: IC50)	also measured
CCOC(=O)c1n[nH]c2c1C(=O)N(c1cccc([N+](=O)[O-])c1)C2=O	Not Active	–	–
CCOC(=O)c1n[nH]c2c1C(=O)N(c1cccc(F)c1)C2=O	Not Active	–	–
CCOC(=O)c1n[nH]c2c1C(=O)N(c1ccc(F)cc1)C2=O	Not Active	–	–
O=C(c1ccccc1)c1n[nH]c2c1C(=O)N(c1ccc([N+](=O)[O-])cc1)C2=O	Not Active	–	–
CCOC(=O)c1n[nH]c2c1C(=O)N(c1ccccc1F)C2=O	Not Active	–	–
CCOC(=O)c1n[nH]c2c1C(=O)N(c1cccc(Br)c1)C2=O	Not Active	–	–
CCOC(=O)c1n[nH]c2c1C(=O)N(c1ccc([N+](=O)[O-])cc1)C2=O	–	31900 nM	IC50 [2]: Not Active; IC50 [3]: Not Active; IC50 [4]: Not Active; IC50 [5]: Not Active; IC50 [6]: Not Active
CCOC(=O)c1n[nH]c2c1C(=O)N(c1ccc(Cl)cc1)C2=O	–	37400 nM	–
CCOC(=O)c1n[nH]c2c1C(=O)N(c1ccccc1Br)C2=O	Not Active	–	–

Now from value to compound, other results behind:

IC50 [1]	IC50 ([1]; read-out: IC50)	SMILES	also measured
–	320 nM	CCCCCCCCCCCCCCCCCC(=O)c1n[nH]c2c1C(=O)N(c1ccccc1C(F)(F)F)C2=O	–
–	1390 nM	CCCCCCCCCC(=O)c1n[nH]c2c1C(=O)N(c1ccc([N+](=O)[O-])cc1)C2=O	–
–	500 nM	CCCCCCCCCCCCCC(=O)c1n[nH]c2c1C(=O)N(c1ccc([N+](=O)[O-])cc1)C2=O	–
–	400 nM	CCCCCCCCCCCCCCCCCC(=O)c1n[nH]c2c1C(=O)N(c1ccc([N+](=O)[O-])cc1)C2=O	–
–	1010 nM	CCCCCCCCCCCCCCCCCC(=O)c1n[nH]c2c1C(=O)N(c1cccc(Br)c1)C2=O	–
–	960 nM	CCCCCCCCCCCCCCCCCC(=O)c1n[nH]c2c1C(=O)N(c1ccc(Br)cc1)C2=O	–
–	120 nM	CCCCCCCCCCCCCCCCCC(=O)c1cc(C(=O)Nc2ccsc2C(=O)O)[nH]n1	IC50 ([2]; read-out: IC50): 1160 nM; IC50 ([3]; read-out: IC50): 9790 nM; IC50 ([4]; read-out: IC50): 410 nM; IC50 [5]: Not Active; IC50 ([6]; read-out: IC50): 12200 nM
–	540 nM	CCCCCCCCCCCCCCCCCC(=O)c1n[nH]c2c1C(=O)N(c1ccc(OC)cc1)C2=O	–
Not Active	–	CCOC(=O)c1n[nH]c2c1C(=O)N(c1ccccc1C(=O)OC)C2=O	–
–	30000 nM	CCCCCCCCCCCCCCCCCC(=O)c1nn(C)c2c1C(=O)N(c1ccccc1)C2=O	–
–	520 nM	CCCCCCCCCCCCCCCCCC(=O)c1n[nH]c2c1C(=O)N(c1cccc(OC)c1)C2=O	–
–	3360 nM	CCCCCCCCCCCCCCCCCC(=O)c1cc(C(=O)Nc2ccsc2C(=O)OC)[nH]n1	IC50 ([2]; read-out: IC50): 18600 nM; IC50 [3]: Not Active; IC50 ([4]; read-out: IC50): 7160 nM; IC50 [5]: Not Active; IC50 [6]: Not Active
Not Active	–	CCOC(=O)c1n[nH]c2c1C(=O)N(c1ccccc1OC)C2=O	–
Not Active	–	CCOC(=O)c1n[nH]c2c1C(=O)N(c1ccc(OC)cc1)C2=O	–
